Measured values as given in ChEMBL document CHEMBL5154755, “Discovery of Novel Indazoles as Potent and Selective PI3Kδ Inhibitors with High Efficacy for Treatment of Hepatocellular Carcinoma” (J Med Chem, 2022).
Activity calls are given as the source filed them. The rule behind the calls is not given here.

What was measured:
HepG2 [1] = experiment: cells; details: Homo sapiens, HepG2, 72 h, read-out: INH
Bel-7402 [2] = experiment: Antiproliferative activity against human Bel-7402 cells assessed as inhibition of cell growth incubated for 72 hrs by SRB assay; assay type: functional, cell-based; details: Bel-7402, 72 h
Bel-7402 [3] = experiment: cells; details: Homo sapiens, Bel-7402, 72 h, read-out: INH
Bel-7402 [4] = experiment: animal or person; details: Mus musculus, Bel-7402, po, 336 h, read-out: INH
Hep 3B2 [5] = experiment: Antiproliferative activity against human Hep3B cells assessed as inhibition of cell growth incubated for 72 hrs by SRB assay; assay type: functional, cell-based
Hep 3B2 [6] = experiment: cells; details: Homo sapiens, Hep3B, 72 h, read-out: INH
HepG2 [7] = experiment: cells; details: Homo sapiens, HepG2, 72 h
Description: Antiproliferative activity against human HepG2 cells assessed as inhibition of cell growth incubated for 72 hrs by SRB assay

Bel-7402 [8] = experiment: Induction of apoptosis in human Bel-7402 cells assessed as increase in apoptotic cells at 50 uM for 24 hrs by TUNEL staining method; assay type: functional, cell-based
Bel-7402 [9] = experiment: Antitumor activity against human Bel-7402 cells xenografted in BAlb/c (nu/nu) mouse assessed as inhibition rate at 30 mg/kg, po daily measured after 14 days; assay type: functional; details: Bel-7402, 336 h, time 14 day
Bel-7402 [10] = experiment: Antitumor activity against human Bel-7402 cells xenografted in BAlb/c (nu/nu) mouse assessed as T/C ratio at 30 mg/kg, po daily measured after 14 days; assay type: functional; details: time 14 day
Bel-7402 [11] = experiment: Antitumor activity against human Bel-7402 cells xenografted in Balb/c (nu/nu) mouse assessed as tumor weight at 30 mg/kg, po qd after 14 days (Rvb=0.65 +/- 0.06 g); assay type: functional; details: time 14 day
Bel-7402 [12] = experiment: Antitumor activity against human Bel-7402 cells xenografted in Balb/c (nu/nu) mouse assessed as relative tumor volume at 30 mg/kg, po qd after 14 days (Rvb=25.69+/-2.73); assay type: functional; details: time 14 day
HepG2 [13] = experiment: Induction of apoptosis in human HepG2 cells assessed as increase in expression of cleaved caspase-3 at 1.5625 to 50 uM incubated for 24 hrs by Western blotting analysis; assay type: functional, cell-based; details: dose 1.5625-50 µM, DDE = dose-dependent effect
[14] = biological target: Phosphatidylinositol 4,5-bisphosphate 3-kinase catalytic subunit beta isoform (Homo sapiens, UniProt P42338); experiment: Inhibition of PI3Kbeta (unknown origin) using PIP2 as substrate incubated for 1 hr in presence of ATP by ADP-Glo assay
Sequence of Phosphatidylinositol 4,5-bisphosphate 3-kinase catalytic subunit beta isoform (P42338 whole entry, canonical isoform): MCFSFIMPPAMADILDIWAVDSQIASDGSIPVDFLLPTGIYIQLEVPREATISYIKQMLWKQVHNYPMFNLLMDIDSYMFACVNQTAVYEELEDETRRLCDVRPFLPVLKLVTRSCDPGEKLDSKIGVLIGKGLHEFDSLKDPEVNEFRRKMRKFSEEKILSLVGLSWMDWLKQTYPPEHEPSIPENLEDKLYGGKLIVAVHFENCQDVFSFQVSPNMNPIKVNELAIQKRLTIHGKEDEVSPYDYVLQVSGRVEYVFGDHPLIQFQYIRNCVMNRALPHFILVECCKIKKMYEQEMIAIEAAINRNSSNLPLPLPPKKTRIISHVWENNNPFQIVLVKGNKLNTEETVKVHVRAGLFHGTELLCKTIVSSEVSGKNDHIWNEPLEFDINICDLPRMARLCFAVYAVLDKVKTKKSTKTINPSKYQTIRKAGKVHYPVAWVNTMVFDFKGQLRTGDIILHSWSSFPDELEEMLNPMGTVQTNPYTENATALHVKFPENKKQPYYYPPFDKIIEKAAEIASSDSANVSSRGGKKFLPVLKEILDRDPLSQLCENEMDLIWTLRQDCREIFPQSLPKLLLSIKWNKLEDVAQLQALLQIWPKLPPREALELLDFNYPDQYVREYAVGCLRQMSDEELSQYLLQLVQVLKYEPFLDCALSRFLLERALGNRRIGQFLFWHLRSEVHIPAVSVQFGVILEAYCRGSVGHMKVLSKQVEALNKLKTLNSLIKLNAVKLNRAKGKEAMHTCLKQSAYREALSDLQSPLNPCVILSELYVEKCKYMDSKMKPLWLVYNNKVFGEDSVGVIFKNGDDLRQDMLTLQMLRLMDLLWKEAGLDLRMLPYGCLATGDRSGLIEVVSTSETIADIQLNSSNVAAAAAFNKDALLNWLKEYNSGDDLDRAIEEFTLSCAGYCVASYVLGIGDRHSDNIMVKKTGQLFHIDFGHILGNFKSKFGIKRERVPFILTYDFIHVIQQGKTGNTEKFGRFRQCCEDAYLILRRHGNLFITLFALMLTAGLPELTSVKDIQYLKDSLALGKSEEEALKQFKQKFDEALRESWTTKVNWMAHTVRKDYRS

Bel-7402 [15] = experiment: Induction of apoptosis in human Bel-7402 cells assessed as decrease in EGf dependent Akt phosphorylation at serine 473 residue at 0.3 to 10 uM measured after 24 hrs by western blotting analysis; assay type: functional, cell-based; details: dose 0.3-10 µM, DDE = dose-dependent effect
Bel-7402 [16] = experiment: Induction of apoptosis in human Bel-7402 cells xenografted in Balb/c (nu/nu) mouse assessed as increase in apoptotic cells at 20 to 40 mg/kg, po daily after 14 days by DAPI staining based assay; assay type: functional, organism-based; details: dose 20-40 mg/kg, time 14.0 day
Bel-7402 [17] = experiment: Induction of apoptosis in human Bel-7402 cells xenografted in Balb/c (nu/nu) mouse assessed as increase in expression of cleaved caspase-3 at 20 to 40 mg/kg, po daily after 14 days by western blot analysis; assay type: functional, organism-based; details: dose 20-40 mg/kg, time 14.0 day
[18] = biological target: Phosphatidylinositol 4,5-bisphosphate 3-kinase catalytic subunit alpha isoform (Homo sapiens, UniProt P42336); experiment: Inhibition of PI3Kalpha (unknown origin) using PIP2 as substrate incubated for 1 hr in presence of ATP by ADP-Glo assay
Sequence of Phosphatidylinositol 4,5-bisphosphate 3-kinase catalytic subunit alpha isoform (P42336 whole entry, canonical isoform): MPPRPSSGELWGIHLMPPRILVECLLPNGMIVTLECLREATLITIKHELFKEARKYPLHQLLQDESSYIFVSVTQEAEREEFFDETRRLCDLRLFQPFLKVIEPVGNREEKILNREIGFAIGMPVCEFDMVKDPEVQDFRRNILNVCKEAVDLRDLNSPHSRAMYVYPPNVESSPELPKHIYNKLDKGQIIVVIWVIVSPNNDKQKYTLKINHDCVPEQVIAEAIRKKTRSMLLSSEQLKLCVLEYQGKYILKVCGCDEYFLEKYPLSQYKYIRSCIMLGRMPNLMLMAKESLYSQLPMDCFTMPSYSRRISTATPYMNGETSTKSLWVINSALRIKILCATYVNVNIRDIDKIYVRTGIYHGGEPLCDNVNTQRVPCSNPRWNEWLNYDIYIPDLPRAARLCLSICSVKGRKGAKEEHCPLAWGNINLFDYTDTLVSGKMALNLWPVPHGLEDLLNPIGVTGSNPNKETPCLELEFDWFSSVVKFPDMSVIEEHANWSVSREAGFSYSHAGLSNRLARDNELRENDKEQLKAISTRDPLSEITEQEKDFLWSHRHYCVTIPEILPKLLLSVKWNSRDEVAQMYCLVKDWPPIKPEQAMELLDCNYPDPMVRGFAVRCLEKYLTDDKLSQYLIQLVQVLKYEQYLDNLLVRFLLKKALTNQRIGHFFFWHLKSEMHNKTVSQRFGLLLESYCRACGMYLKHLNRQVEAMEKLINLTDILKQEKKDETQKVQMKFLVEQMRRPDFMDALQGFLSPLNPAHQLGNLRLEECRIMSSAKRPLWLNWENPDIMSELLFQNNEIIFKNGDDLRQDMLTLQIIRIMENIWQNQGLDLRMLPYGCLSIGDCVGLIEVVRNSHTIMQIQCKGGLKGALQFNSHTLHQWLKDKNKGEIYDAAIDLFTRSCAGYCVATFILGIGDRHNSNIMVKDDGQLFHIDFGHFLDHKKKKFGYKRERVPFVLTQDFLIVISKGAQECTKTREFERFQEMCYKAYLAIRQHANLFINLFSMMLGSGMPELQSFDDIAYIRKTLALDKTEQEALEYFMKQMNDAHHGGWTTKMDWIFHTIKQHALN

Bel-7402 [19] = experiment: Induction of apoptosis in human Bel-7402 cells xenografted in Balb/c (nu/nu) mouse assessed as decrease in cell proliferation at 20 to 40 mg/kg, po daily after 14 days by Ki-67 staining based immunohistochemical analysis; assay type: functional, organism-based; details: dose 20-40 mg/kg, time 14.0 day
Bel-7402 [20] = experiment: Induction of apoptosis in human Bel-7402 cells assessed as increase in expression of cleaved caspase-3 at 1.5625 to 50 uM incubated for 24 hrs by Western blotting analysis; assay type: functional, cell-based; details: dose 1.5625-50 µM, DDE = dose-dependent effect
HepG2 [21] = experiment: Induction of apoptosis in human HepG2 cells assessed as decrease in EGf dependent Akt phosphorylation at threonine 308 residue at 0.3 to 10 uM measured after 24 hrs by western blotting analysis; assay type: functional, cell-based; details: dose 0.3-10 µM, DDE = dose-dependent effect
[22] = Toxicity in Balb/c (nu/nu) mouse xenografted with human Bel-7402 cells assessed as change in body weight at 20 to 40 mg/kg, po daily after 14 days; assay type: organism-based; details: in vivo, 336 h, dose 20-40 mg/kg, time 14 day
Bel-7402 [23] = experiment: Induction of apoptosis in human Bel-7402 cells assessed as decrease in EGf dependent Akt phosphorylation at threonine 308 residue at 0.3 to 10 uM measured after 24 hrs by western blotting analysis; assay type: functional, cell-based; details: dose 0.3-10 µM, DDE = dose-dependent effect
Bel-7402 [24] = experiment: Induction of apoptosis in human Bel-7402 cells assessed as increase in apoptotic cells at 12.5 to 50 uM for 24 hrs by TUNEL staining method; assay type: functional, cell-based; details: dose 12.5-50 µM
HepG2 [25] = experiment: Induction of apoptosis in human HepG2 cells assessed as decrease in EGf dependent Akt phosphorylation at serine 473 residue at 0.3 to 10 uM measured after 24 hrs by western blotting analysis; assay type: functional, cell-based; details: dose 0.3-10 µM, DDE = dose-dependent effect
[26] = biological target: Phosphatidylinositol 4,5-bisphosphate 3-kinase catalytic subunit gamma isoform (Homo sapiens, UniProt P48736); experiment: Inhibition of PI3Kgamma (unknown origin) using PIP2 as substrate incubated for 1 hr in presence of ATP by ADP-Glo assay
Sequence of Phosphatidylinositol 4,5-bisphosphate 3-kinase catalytic subunit gamma isoform (P48736 whole entry, canonical isoform): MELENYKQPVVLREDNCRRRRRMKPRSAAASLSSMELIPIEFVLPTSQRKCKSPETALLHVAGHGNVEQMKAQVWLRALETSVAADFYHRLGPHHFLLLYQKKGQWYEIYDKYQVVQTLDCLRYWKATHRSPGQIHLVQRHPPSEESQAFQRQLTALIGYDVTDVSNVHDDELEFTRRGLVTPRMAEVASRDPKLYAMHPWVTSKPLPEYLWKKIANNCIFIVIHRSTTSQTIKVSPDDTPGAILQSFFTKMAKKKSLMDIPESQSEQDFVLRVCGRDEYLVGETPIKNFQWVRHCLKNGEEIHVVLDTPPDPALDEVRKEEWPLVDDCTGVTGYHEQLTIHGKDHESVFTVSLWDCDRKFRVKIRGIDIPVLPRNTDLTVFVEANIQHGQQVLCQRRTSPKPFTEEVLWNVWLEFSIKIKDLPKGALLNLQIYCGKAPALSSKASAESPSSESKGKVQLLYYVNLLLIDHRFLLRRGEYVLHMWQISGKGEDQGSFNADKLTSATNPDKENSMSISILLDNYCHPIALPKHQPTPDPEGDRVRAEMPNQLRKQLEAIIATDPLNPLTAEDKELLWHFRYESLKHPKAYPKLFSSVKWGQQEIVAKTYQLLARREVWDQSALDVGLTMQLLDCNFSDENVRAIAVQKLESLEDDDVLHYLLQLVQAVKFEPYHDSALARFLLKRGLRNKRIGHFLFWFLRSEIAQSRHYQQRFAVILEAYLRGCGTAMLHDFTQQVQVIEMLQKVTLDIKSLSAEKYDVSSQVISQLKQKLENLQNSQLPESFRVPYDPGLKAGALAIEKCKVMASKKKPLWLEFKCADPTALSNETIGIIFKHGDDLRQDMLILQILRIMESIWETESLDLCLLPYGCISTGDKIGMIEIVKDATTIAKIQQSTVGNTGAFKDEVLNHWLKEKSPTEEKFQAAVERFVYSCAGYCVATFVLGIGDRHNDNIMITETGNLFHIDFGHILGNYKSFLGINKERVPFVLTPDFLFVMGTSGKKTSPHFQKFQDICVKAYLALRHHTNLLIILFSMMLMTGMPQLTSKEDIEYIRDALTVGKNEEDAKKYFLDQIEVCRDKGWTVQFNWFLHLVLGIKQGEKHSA

Bel-7402 [27] = experiment: Induction of apoptosis in human Bel-7402 cells xenografted in Balb/c (nu/nu) mouse assessed as decrease in phosphorylation of Akt at serine 473 residue at 20 to 40 mg/kg, po daily after 14 days by western blot analysis; assay type: functional, organism-based; details: dose 20-40 mg/kg, time 14.0 day
Bel-7402 [28] = experiment: Induction of apoptosis in human Bel-7402 cells xenografted in Balb/c (nu/nu) mouse assessed as increase in expression of cleaved PARP at 20 to 40 mg/kg, po daily after 14 days by western blot analysis; assay type: functional, organism-based; details: dose 20-40 mg/kg, time 14.0 day
Bel-7402 [29] = experiment: Induction of apoptosis in human Bel-7402 cells assessed as increase in expression of cleaved PARP at 1.5625 to 50 uM incubated for 24 hrs by Western blotting analysis; assay type: functional, cell-based; details: dose 1.5625-50 µM, DDE = dose-dependent effect
HepG2 [30] = experiment: Induction of apoptosis in human HepG2 cells assessed as increase in expression of cleaved PARP at 1.5625 to 50 uM incubated for 24 hrs by Western blotting analysis; assay type: functional, cell-based; details: dose 1.5625-50 µM, DDE = dose-dependent effect

## CC[C@H](Nc1ncnc2[nH]cnc12)c1nc2cccc(F)c2c(=O)n1-c1ccccc1 [IDELALISIB]
HepG2 [1]
  inhibition at 10 µM: 20%
Bel-7402 [2]
  IC50: 66200 nM
Bel-7402 [3]
  inhibition at 10 µM: 9%
Bel-7402 [4]
  inhibition in vivo at 40 mg/kg: 44.6%
Hep 3B2 [5]
  IC50: 77600 nM
Hep 3B2 [6]
  inhibition at 10 µM: 21%
HepG2 [7]
  IC50: 89500 nM
Bel-7402 [8]
  Activity: Active

## CNC(=O)c1cc(Oc2ccc(NC(=O)Nc3ccc(Cl)c(C(F)(F)F)c3)cc2)ccn1 [SORAFENIB]
Bel-7402 [9]
  inhibition in vivo at 30 mg/kg: 51.3%
Bel-7402 [10]
  T/C: 45.13%
Bel-7402 [11]
  Activity: 0.32 g
Bel-7402 [12]
  Activity: 11.6

## C[C@H](Nc1nc(N)nc(N)c1C#N)c1nn(-c2cccnc2)c2cc(Cl)ccc12
HepG2 [13]
  Activity: Dde
[14]
  IC50: 41 nM
Bel-7402 [15]
  Activity: Dde
Bel-7402 [2]
  IC50: 1360 nM
Bel-7402 [16]
  Activity: Active
Bel-7402 [17]
  Activity: Active
[18]
  IC50: > 1000 nM
Bel-7402 [19]
  Activity: Active
Bel-7402 [20]
  Activity: Dde
HepG2 [21]
  Activity: Dde
[22]
  Activity: Non-Toxic
Bel-7402 [23]
  Activity: Dde
Bel-7402 [24]
  Activity: Active
Hep 3B2 [5]
  IC50: 1090 nM
HepG2 [25]
  Activity: Dde
[26]
  IC50: 275 nM
HepG2 [7]
  IC50: 530 nM
Bel-7402 [27]
  Activity: Active
Bel-7402 [28]
  Activity: Active
Bel-7402 [29]
  Activity: Dde
HepG2 [30]
  Activity: Dde
